# From US20250304563A1, “ACTIVATORS OF EFFECTOR T CELLS” (Orum Therapeutics, Inc., priority 2022, published 2025)
# What was measured:
# [1] = target: Cbl-b (36-427 aa truncated form, N-terminus Avi-tag) (Homo sapiens (Human), UniProt Q13191); experiment: Cbl-b binding: TR-FRET displacement of BODIPY-FL probe
# How it was run: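 IC50 from loss of terbium–BODIPY-FL TR-FRET signal as compounds compete off a fluorescent Cbl-b inhibitor probe (1 uM) for 1 h at RT. Protein: N-Avi-tagged human Cbl-b 36-427 on streptavidin-terbium, 20 mM HEPES pH 7.5 buffer.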
# Human primary T cells [2] = experiment: T cell activation: secreted IL-2; format: cell-based; details: 48 hours, fold over background normalized to Compound 141A; for IL-2 1 nM: 1 nM compound; for IL-2 10 nM: 10 nM compound; for IL-2 100 nM: 100 nM compound
# How it was run: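 IL-2 values are fold over anti-CD3/CD28 background, normalized to a reference compound and sorted into ranges. They come from supernatants of human pan-T cells captured on anti-CD3-coated plates and exposed 48 h, 37° C., to duplicate compound dilutions, measured with cytometric beads.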
# Human primary T cells [3] = experiment: T cell activation: secreted IFN-y; format: cell-based; details: 48 hours, fold over background normalized to Compound 141A; for IFN-y 1 nM: 1 nM compound; for IFN-y 10 nM: 10 nM compound; for IFN-y 100 nM: 100 nM compound
# How it was run: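 Values are binned ranges (A–D) of fold increase over anti-CD3/CD28 background, normalized to a reference compound, for IFN-γ in supernatants measured by bead array. Pan-T cells from donor PBMC or LeukoPaks were stimulated on anti-CD3-coated wells (10 μg/mL coating) in serum-free medium with compound for 48 h at 37 °C.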
# Human primary T cells [4] = experiment: T cell activation: CD69 surface expression by flow cytometry; format: cell-based; details: fold over anti-CD3 stimulated background normalized to Compound 141A; for CD69 1 nM: 1 nM compound; for CD69 10 nM: 10 nM compound; for CD69 100 nM: 100 nM compound
# How it was run: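 Read-out is flow-cytometric CD69 surface staining, expressed as fold increase over anti-CD3-stimulated background and normalized to Compound 141A. Human pan T cells from PBMC or LeukoPaks were plated on OKT3-coated wells in serum-free XVivo-15. Compound dilutions were added for 48 h at 37° C, 5% CO2.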
# Chain of Cbl-b (36-427 aa truncated form, N-terminus Avi-tag) (Q13191 36-427): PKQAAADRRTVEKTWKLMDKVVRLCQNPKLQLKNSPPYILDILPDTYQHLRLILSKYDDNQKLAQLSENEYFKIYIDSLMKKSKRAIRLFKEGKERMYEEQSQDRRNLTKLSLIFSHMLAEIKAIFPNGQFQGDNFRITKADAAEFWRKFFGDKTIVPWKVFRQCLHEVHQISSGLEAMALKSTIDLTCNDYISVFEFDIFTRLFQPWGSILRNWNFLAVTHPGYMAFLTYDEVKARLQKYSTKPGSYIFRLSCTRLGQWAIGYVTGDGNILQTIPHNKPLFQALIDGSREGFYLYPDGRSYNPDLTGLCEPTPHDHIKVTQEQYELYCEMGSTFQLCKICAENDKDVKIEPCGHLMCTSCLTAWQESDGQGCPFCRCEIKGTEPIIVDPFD
Structure (SMILES),IC50 [1],IL-2 1 nM (Human primary T cells [2]),IL-2 10 nM (Human primary T cells [2]),IL-2 100 nM (Human primary T cells [2]),IFN-y 1 nM (Human primary T cells [3]),IFN-y 10 nM (Human primary T cells [3]),IFN-y 100 nM (Human primary T cells [3]),CD69 1 nM (Human primary T cells [4]),CD69 10 nM (Human primary T cells [4]),CD69 100 nM (Human primary T cells [4])
"CSc1cc(CN2CCC[C@H](C)C2)cc2c1CN(c1cccc([C@]3(c4nncn4C)C[C@H](C)C3)c1)C2=O [Compound 150, 6-{[(3S)-3-methylpiperidin-1-yl]methyl}-4-(methylsulfanyl)-2-{3-[(1r,3s)-3-methyl-1-(4-methyl-1,2,4-triazol-3-yl)cyclobutyl]phenyl}-3H-isoindol-1-one]",1 to 5 nM,D (values between 0.01 and 0.09: range “D.”),C (values between 0.10 and 0.30: range “C”),B (values between 0.31 and 0.79: range “B”),B (values between 0.31 and 1.00: range “B;”),B (values between 0.31 and 1.00: range “B;”),A (fold over background between 1.10 and 2.00: range “A”),C (values between 0.30 and 0.60: range “C”),C (values between 0.30 and 0.60: range “C”),A (values between 0.81 and 1.10: range “A”)
"CC1CC(c2cccc(N3Cc4c(cc(C(CO)N5CCC[C@H](C)C5)cc4C(F)(F)F)C3=O)c2)(c2nncn2C)C1 (stereo partly drawn) [Compound 152, 6-{2-hydroxy-1-[(3S)-3-methylpiperidin-1-yl]ethyl}-2-{3-[(1r,3s)-3-methyl-1-(4-methyl-1,2,4-triazol-3-yl)cyclobutyl]phenyl}-4-(trifluoromethyl)-3H-isoindol-1-one]",1 to 5 nM,C (values between 0.10 and 0.30: range “C”),C (values between 0.10 and 0.30: range “C”),C (values between 0.10 and 0.30: range “C”),C (values between 0.10 and 0.30: range “C”),B (values between 0.31 and 1.00: range “B;”),B (values between 0.31 and 1.00: range “B;”),C (values between 0.30 and 0.60: range “C”),C (values between 0.30 and 0.60: range “C”),A (values between 0.81 and 1.10: range “A”)
"CSc1cc(CN2CCC[C@H](C)C2)cc2c1CN(c1cc(C3(Cc4nncn4C)COC3)cc(NCCC#N)n1)C2=O.O=C(O)C(F)(F)F [Compound 154, 3-[(4-{3-[(4-methyl-1,2,4-triazol-3-yl)methyl]oxetan-3-yl}-6-(6-{[(3S)-3-methylpiperidin-1-yl]methyl}-4-(methylsulfanyl)-1-oxo-3H-isoindol-2-yl)pyridin-2-yl)amino]propanenitrile; trifluoroacetic acid]",1 to 5 nM,D (values between 0.01 and 0.09: range “D.”),D (values between 0.01 and 0.09: range “D.”),C (values between 0.10 and 0.30: range “C”),B (values between 0.31 and 1.00: range “B;”),B (values between 0.31 and 1.00: range “B;”),B (values between 0.31 and 1.00: range “B;”),C (values between 0.30 and 0.60: range “C”),C (values between 0.30 and 0.60: range “C”),B (values between 0.61 and 0.80: range “B;”)
"Cn1cnnc1CC1(c2cc(NCCC#N)nc(N3Cc4c(cc(CN5CCCC6OCCC65)cc4C(F)(F)F)C3=O)c2)COC1 (stereo not drawn) [Compound 162, 3-{[6-(6-{hexahydro-2H-furo[3,2-b]pyridin-4-ylmethyl}-1-oxo-4-(trifluoromethyl)-3H-isoindol-2-yl)-4-{3-[(4-methyl-1,2,4-triazol-3-yl)methyl]oxetan-3-yl}pyridin-2-yl]amino}propanenitrile]",5.01 to 20 nM,D (values between 0.01 and 0.09: range “D.”),D (values between 0.01 and 0.09: range “D.”),D (values between 0.01 and 0.09: range “D.”),C (values between 0.10 and 0.30: range “C”),B (values between 0.31 and 1.00: range “B;”),B (values between 0.31 and 1.00: range “B;”),C (values between 0.30 and 0.60: range “C”),C (values between 0.30 and 0.60: range “C”),C (values between 0.30 and 0.60: range “C”)
"Cn1cnnc1CC1(c2cc(NCCC#N)nc(N3Cc4c(cc(CN5CC6(F)CC(CO)(C5)C6)cc4C(F)(F)F)C3=O)c2)COC1.O=C(O)C(F)(F)F [Compound 164, 3-{[6-(6-{[1-fluoro-5-(hydroxymethyl)-3-azabicyclo[3.1.1]heptan-3-yl]methyl}-1-oxo-4-(trifluoromethyl)-3H-isoindol-2-yl)-4-{3-[(4-methyl-1,2,4-triazol-3-yl)methyl]oxetan-3-yl}pyridin-2-yl]amino}propanenitrile; trifluoroacetic acid]",5.01 to 20 nM,C (values between 0.10 and 0.30: range “C”),C (values between 0.10 and 0.30: range “C”),C (values between 0.10 and 0.30: range “C”),C (values between 0.10 and 0.30: range “C”),C (values between 0.10 and 0.30: range “C”),B (values between 0.31 and 1.00: range “B;”),C (values between 0.30 and 0.60: range “C”),C (values between 0.30 and 0.60: range “C”),C (values between 0.30 and 0.60: range “C”)
"CCSc1cc(C2(Cc3nncn3C)COC2)cc(N2Cc3c(C=O)cc(CN4CCC[C@H](C)C4)cc3C2=O)n1 [Compound 169, 2-[6-(ethylsulfanyl)-4-{3-[(4-methyl-1,2,4-triazol-3-yl)methyl]oxetan-3-yl}pyridin-2-yl]-6-{[(3S)-3-methylpiperidin-1-yl]methyl}-1-oxo-3H-isoindole-4-carbaldehyde]",5.01 to 20 nM,C (values between 0.10 and 0.30: range “C”),C (values between 0.10 and 0.30: range “C”),C (values between 0.10 and 0.30: range “C”),C (values between 0.10 and 0.30: range “C”),B (values between 0.31 and 1.00: range “B;”),B (values between 0.31 and 1.00: range “B;”),C (values between 0.30 and 0.60: range “C”),C (values between 0.30 and 0.60: range “C”),C (values between 0.30 and 0.60: range “C”)

# The next lines start with results.
IC50 [1],Structure (SMILES),IL-2 1 nM (Human primary T cells [2]),IL-2 10 nM (Human primary T cells [2]),IL-2 100 nM (Human primary T cells [2]),IFN-y 1 nM (Human primary T cells [3]),IFN-y 10 nM (Human primary T cells [3]),IFN-y 100 nM (Human primary T cells [3]),CD69 1 nM (Human primary T cells [4]),CD69 10 nM (Human primary T cells [4]),CD69 100 nM (Human primary T cells [4])
1 to 5 nM,"CSc1cc(C(CO)N2CCC[C@H](C)C2)cc2c1CN(c1cccc([C@]3(c4nncn4C)C[C@H](C)C3)c1)C2=O (stereo partly drawn) [Compound 170, 6-{2-hydroxy-1-[(3S)-3-methylpiperidin-1-yl]ethyl}-4-(methylsulfanyl)-2-{3-[(1r,3s)-3-methyl-1-(4-methyl-1,2,4-triazol-3-yl)cyclobutyl]phenyl}-3H-isoindol-1-one]",C (values between 0.10 and 0.30: range “C”),C (values between 0.10 and 0.30: range “C”),B (values between 0.31 and 0.79: range “B”),B (values between 0.31 and 1.00: range “B;”),B (values between 0.31 and 1.00: range “B;”),B (values between 0.31 and 1.00: range “B;”),C (values between 0.30 and 0.60: range “C”),C (values between 0.30 and 0.60: range “C”),A (values between 0.81 and 1.10: range “A”)
100 to 1000 nM,"CCNc1cc(C2(c3nncn3C)CC(C)C2)cc(N2Cc3c(cc(CN4CCC[C@H](C)C4)cc3C(F)(F)F)C2=O)n1 (stereo partly drawn) [Compound 171, 2-[6-(ethylamino)-4-[(1r,3s)-3-methyl-1-(4-methyl-1,2,4-triazol-3-yl)cyclobutyl]pyridin-2-yl]-6-{[(3 S)-3-methylpiperidin-1-yl]methyl}-4-(trifluoromethyl)-3H-isoindol-1-one]",C (values between 0.10 and 0.30: range “C”),C (values between 0.10 and 0.30: range “C”),B (values between 0.31 and 0.79: range “B”),B (values between 0.31 and 1.00: range “B;”),B (values between 0.31 and 1.00: range “B;”),A (fold over background between 1.10 and 2.00: range “A”),C (values between 0.30 and 0.60: range “C”),C (values between 0.30 and 0.60: range “C”),X (fold over background values between 1.11 and 1.6: range “X”)
1 to 5 nM,CSc1cc(CN2CCC[C@H](C)C2)cc2c1CN(c1cc(C3(Cc4nncn4C)COC3)cc(N)n1)C2=O [Compound 173],D (values between 0.01 and 0.09: range “D.”),D (values between 0.01 and 0.09: range “D.”),D (values between 0.01 and 0.09: range “D.”),C (values between 0.10 and 0.30: range “C”),B (values between 0.31 and 1.00: range “B;”),B (values between 0.31 and 1.00: range “B;”),C (values between 0.30 and 0.60: range “C”),C (values between 0.30 and 0.60: range “C”),C (values between 0.30 and 0.60: range “C”)
